# Test results: US20180042851A1, “SOLID DISPERSIONS” (FMC Corporation, priority 2015, published 2018)
# Where two headings read alike, the source gives them in different places.
# Experimental: In vitro dissolution studies of the lovastatin:alginate solid dispersions produced above were carried out using the paddle method equipped with a USP II apparatus at 37.5±0.5° C. and a paddle speed of 50 rpm. The appropriate amount of lovastatin solid dispersion (containing 60 mg lovastatin) was added into 900 mL dissolution medium (0.05M pH6.8 phosphate buffer with 0.1% SDS as non-sink condition). Samples (6 mL) were collected at predetermined time intervals and immediately filtered through a 0.15 μm syringe filter, the first 2 mL of filtrate was discarded and the remaining filtrate was collected for analysis at 237 nm using a UV spectrophotometer (UV-2000, UNIC Instrument Corp., Shanghai, China). Meanwhile, an equal volume of fresh dissolution medium was added.
smiles,measurement,setting,value
"CC[C@H](C)C(=O)O[C@H]1C[C@@H](C)C=C2C=C[C@H](C)[C@H](CC[C@@H]3C[C@@H](O)CC(=O)O3)[C@H]21 [Drug Alone, lovastatin]",Cumulative Release (%),"0 minutes, 60 mg lovastatin in 900 mL pH6.8 phosphate buffer with 0.1% SDS, 37.5° C., 50 rpm",0%
same,Cumulative Release (%),"5 minutes, pH6.8 phosphate buffer with 0.1% SDS, non-sink",13.52%
same,Cumulative Release (%),"10 minutes, pH6.8 phosphate buffer with 0.1% SDS, non-sink",18.29%
same,Cumulative Release (%),"15 minutes, pH6.8 phosphate buffer with 0.1% SDS, non-sink",22.81%
same,Cumulative Release (%),"30 minutes, pH6.8 phosphate buffer with 0.1% SDS, non-sink",29.77%
